{
  "source": "patent US7763615B2",
  "about": "“Ecteinascidin analogs for use as antitumour agents” (priority 2001, dated 2010)",
  "key": {"[1]": {"tested_on": "A549", "experiment": "cells", "type": "cell-based", "settings": "Homo sapiens, A549, 48 h", "method_in_brief": "(§1)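 Human tumour cells seeded at 5×10^3 per well in RPMI 1640 10% FBS, attached 18 h, then exposed 48 h to samples from 10 to 10^−8 μg/ml in DMSO/EtOH/PBS. Growth measured by SRB staining after TCA fixation, OD 490 nm, triplicate wells; GI, TGI and LC derived.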"}, "[2]": {"tested_on": "DU145", "experiment": "cells", "type": "cell-based", "settings": "Homo sapiens, DU-145, 48 h", "method_in_brief": "as §1"}, "[3]": {"tested_on": "IGROV-ET", "experiment": "cells", "type": "cell-based", "settings": "Homo sapiens, 48 h", "method_in_brief": "as §1"}, "[4]": {"tested_on": "IGROV", "experiment": "cells", "type": "cell-based", "settings": "Homo sapiens, 48 h", "method_in_brief": "as §1"}, "[5]": {"tested_on": "K562", "experiment": "cells", "type": "cell-based", "settings": "Homo sapiens, K562, 48 h", "method_in_brief": "as §1"}, "[6]": {"tested_on": "LNCAP", "experiment": "cells", "type": "cell-based", "settings": "Homo sapiens, LNCaP, 48 h", "method_in_brief": "as §1"}, "[7]": {"tested_on": "LOVO-DOX", "experiment": "cells", "type": "cell-based", "settings": "Homo sapiens, 48 h", "method_in_brief": "as §1"}, "[8]": {"tested_on": "LOVO", "experiment": "cells", "type": "cell-based", "settings": "Homo sapiens, LoVo, 48 h", "method_in_brief": "as §1"}, "[9]": {"tested_on": "MEL-28", "experiment": "cells", "type": "cell-based", "settings": "Homo sapiens, SK-MEL-28, 48 h", "method_in_brief": "as §1"}, "[10]": {"tested_on": "PANC-1", "experiment": "cells", "type": "cell-based", "settings": "Homo sapiens, PANC-1, 48 h", "method_in_brief": "as §1"}, "[11]": {"tested_on": "SK-BR3", "experiment": "cells", "type": "cell-based", "settings": "Homo sapiens, SK-BR-3, 48 h", "method_in_brief": "as §1"}, "[12]": {"tested_on": "H-MEC-1", "experiment": "Inhibition of cells growth by colorimetric assay (SRB), H-MEC-1", "type": "cell-based", "settings": "Homo sapiens, HMEC-1, 48 h", "method_in_brief": "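Cells plated at 5×10^3 per well; 18 h later, test samples added across 10 to 10^−8 μg/ml; incubation continued 48 h at 37° C, 5% CO2. Cells then fixed with cold TCA, stained with SRB, dye solubilised in Tris, and optical density measured at 490 nm.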"}, "[13]": {"tested_on": "SK-OV3", "experiment": "Inhibition of cells growth by colorimetric assay (SRB), SK-OV3", "type": "cell-based", "method_in_brief": "as §1"}, "[14]": {"tested_on": "AML-12, normal mouse liver cells", "settings": "24 h"}, "[15]": {"tested_on": "L8, normal rat skeletal muscle cells", "settings": "24 h"}, "[16]": {"tested_on": "FDC-P1, normal mouse myelogeous stem cells", "settings": "24 h"}, "[17]": {"tested_on": "H9c2 (2-1), normal rat cardiac muscle cells", "settings": "24 h"}, "[18]": {"settings": "s9, 60 min, 1 μM", "protocol": "The metabolic stability was determined used human liver S9 homogenate that including both microsomal and cytosolic enzyme activities. The test compound was diluted in methanol (0.625%) and acetonitrile (0.625%) at the concentration 1 μM and incubated in the human liver pool (protein=1 mg/mL) during 60 min at 37° C. Peak areas corresponding to all analytes (metabolic products) were determined by HPLC-MS/MS. Areas were recorded and ratios of peak areas of analytes to that of internal standard for each analyte were determined. The ratio of precursor compound remaining after 60 minutes and the amount remaining at time zero, expressed as percent, are reported as metabolic stability. Higher values mean higher metabolic stability."}, "[19]": {"tested_on": "(HEPG2)", "settings": "human, 24 h, 30 μM", "protocol": "The toxic potential of compounds was investigated in vitro using primary human hepatocytes (HEPG2). The compounds were tested at 30 μM in duplicate with a final DMSO concentration of 1%. After incubation during 24 h at 37° C. the cell viability was determined by the conversion of oxided alarmarBlue (resazurin) to reduced alarmarBlue (resorufin). Chlorpromazine was used as reference compound. Results are expressed as a percent of inhibition of control values."}, "[20]": {"experiment": "physchem", "settings": "pH 7.4, log D n-Octanol-Dulbecco's PBS pH 7.4", "protocol": "The measurement of partition coefficient was evaluated based on a miniaturized shake-flask procedure. Buffer (Dulbecco's PBS, pH 7.40) was used as the aqueous phase. The tested compound was dissolved in DMSO, at the concentration of 100 μM. The final DMSO concentration (1%.) during the octanol-buffer partitioning are very low to avoid bias on the partitioning. The amount of compound in the buffer phase was determined by HPLC with photodiode array detection after an equilibration phase of 60 min. The amount of compound in the octanol phase is calculated by subtraction of the amount of compound in buffer from the total amount of compound, which is determined from a calibration sample.\nLog D is calculated as the Log10 of the amount of compound in the octanol phase divided by the amount of compound in the buffer phase. The effective range of the log D microassay is approximately −0.5 to +4.5."}, "[21]": {"target": "CYP2D6 (Homo sapiens, UniProt P10635)", "sequence (P10635 whole entry)": "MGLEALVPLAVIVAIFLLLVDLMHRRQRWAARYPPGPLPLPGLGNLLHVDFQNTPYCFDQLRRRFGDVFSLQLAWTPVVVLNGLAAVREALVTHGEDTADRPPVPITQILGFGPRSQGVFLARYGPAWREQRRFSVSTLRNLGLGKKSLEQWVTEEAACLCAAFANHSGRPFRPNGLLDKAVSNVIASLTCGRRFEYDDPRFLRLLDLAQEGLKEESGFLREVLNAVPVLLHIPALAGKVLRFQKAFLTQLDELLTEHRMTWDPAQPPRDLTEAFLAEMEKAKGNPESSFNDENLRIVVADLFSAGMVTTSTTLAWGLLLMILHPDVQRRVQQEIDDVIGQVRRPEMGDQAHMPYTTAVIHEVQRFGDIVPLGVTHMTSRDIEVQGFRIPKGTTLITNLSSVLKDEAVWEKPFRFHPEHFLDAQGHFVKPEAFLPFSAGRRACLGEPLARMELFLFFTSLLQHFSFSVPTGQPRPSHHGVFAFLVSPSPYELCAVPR", "experiment": "in vitro", "settings": "CYP2D6 (% inhibition)"}, "[22]": {"target": "CYP3A4 (Homo sapiens, UniProt P08684)", "sequence (P08684 whole entry)": "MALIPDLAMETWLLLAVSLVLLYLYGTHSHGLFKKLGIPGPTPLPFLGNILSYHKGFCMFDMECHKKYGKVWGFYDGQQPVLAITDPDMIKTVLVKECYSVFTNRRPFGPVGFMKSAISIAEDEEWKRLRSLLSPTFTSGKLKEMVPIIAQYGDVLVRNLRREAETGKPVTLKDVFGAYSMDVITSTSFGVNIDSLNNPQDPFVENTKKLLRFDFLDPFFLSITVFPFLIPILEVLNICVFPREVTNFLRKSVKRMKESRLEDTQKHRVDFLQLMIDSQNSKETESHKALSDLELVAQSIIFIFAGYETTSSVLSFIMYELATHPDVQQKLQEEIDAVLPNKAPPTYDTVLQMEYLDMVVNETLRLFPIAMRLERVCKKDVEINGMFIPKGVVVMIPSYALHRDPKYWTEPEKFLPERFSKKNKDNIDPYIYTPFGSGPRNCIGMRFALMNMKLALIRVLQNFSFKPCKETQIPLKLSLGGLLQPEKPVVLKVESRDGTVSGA", "experiment": "in vitro", "settings": "CYP3A4 (% inhibition)", "protocol": "For CYP3A4 inhibition assay, the compound were tested at 10 μM in duplicate with a 0.25% final concentration of both methanol and acetonitrile in presence of the fluorescent substrate BFC (50 μM). The conversion of the BFC (7-benzyloxy-4-trifluoromethylcoumarin) in HFC (7-hydroxy-4-trifluoromethylcoumarin) was determined spectro-fluormetry after incubation with the enzyme during 30 min at 37° C.\nFor both assays, the fluorescent intensity measured at t=0 is subtracted from that measured after the appropriate incubation time. The ratio of signal-to-noise is calculated by comparing the fluorescence in incubations containing the test compound to the control samples containing the same solvent vehicle. The percent of control activity is calculated and reported as percent inhibition."}, "[23]": {"settings": "IGROV-ET, 48 hours exposure, SRB"}, "[24]": {"settings": "LOVO-DOX, 48 hours exposure, SRB"}, "[25]": {"settings": "H-MEC-1, 48 hours exposure, SRB"}},
  "data": [
    {"compound": "COc1c(C)cc2c(c1O)[C@@H]1C3[C@@H]4SC[C@]5(NCCc6c5[nH]c5c(C)cccc65)C(=O)COC[C@@H](c5c6c(c(C)c(OC(C)=O)c54)OCO6)N3[C@@H](O)[C@H](C2)N1C", "note": "(stereo partly drawn) [Compound 36]", "values": [
      {"measurement": "GI50", "setting": "[1]; A549, 48 hours exposure, SRB, read-out: GI50", "result": 28.4, "unit": "nM"},
      {"measurement": "IC (TGI)", "setting": "[1]; A549, 48 hours exposure, SRB, read-out: TGI", "result": 50.7, "unit": "nM"},
      {"measurement": "CC50", "setting": "[1]; read-out: LC50, A549, 48 hours exposure, SRB", "result": 90.9, "unit": "nM"},
      {"measurement": "GI50", "setting": "[2]; DU145, 48 hours exposure, SRB", "result": 5.41, "unit": "nM"},
      {"measurement": "IC (TGI)", "setting": "[2]; DU145, 48 hours exposure, SRB", "result": 9.39, "unit": "nM"},
      {"measurement": "CC50", "setting": "[2]; read-out: LC50, DU145, 48 hours exposure, SRB", "result": 13000, "unit": "nM"},
      {"measurement": "GI50", "setting": "[3]; [23]", "result": 50.3, "unit": "nM"},
      {"measurement": "IC (TGI)", "setting": "[3]; [23]", "result": 103, "unit": "nM"},
      {"measurement": "CC50", "setting": "[3]; read-out: LC50, IGROV-ET, 48 hours exposure, SRB", "result": 130, "unit": "nM"},
      {"measurement": "GI50", "setting": "[4]; 48 hours exposure, SRB", "result": 3.72, "unit": "nM"},
      {"measurement": "IC (TGI)", "setting": "[4]; 48 hours exposure, SRB", "result": 7.21, "unit": "nM"},
      {"measurement": "CC50", "setting": "[4]; read-out: LC50, IGROV, 48 hours exposure, SRB", "result": 27.1, "unit": "nM"},
      {"measurement": "GI50", "setting": "[5]; K562, 48 hours exposure, SRB", "result": 6.15, "unit": "nM"},
      {"measurement": "IC (TGI)", "setting": "[5]; K562, 48 hours exposure, SRB", "result": 9.92, "unit": "nM"},
      {"measurement": "CC50", "setting": "[5]; read-out: LC50, K562, 48 hours exposure, SRB", "result": 109, "unit": "nM"},
      {"measurement": "GI50", "setting": "[6]; 48 hours exposure, SRB", "result": 6.14, "unit": "nM"},
      {"measurement": "IC (TGI)", "setting": "[6]; 48 hours exposure, SRB", "result": 9.48, "unit": "nM"},
      {"measurement": "CC50", "setting": "[6]; read-out: LC50, LNCAP, 48 hours exposure, SRB", "result": 25.1, "unit": "nM"},
      {"measurement": "GI50", "setting": "[7]; [24]", "result": 70.4, "unit": "nM"},
      {"measurement": "IC (TGI)", "setting": "[7]; [24]", "result": 977, "unit": "nM"},
      {"measurement": "CC50", "setting": "[7]; read-out: LC50, LOVO-DOX, 48 hours exposure, SRB", "result": 13000, "unit": "nM"},
      {"measurement": "GI50", "setting": "[8]; 48 hours exposure, SRB", "result": 27.3, "unit": "nM"},
      {"measurement": "IC (TGI)", "setting": "[8]; 48 hours exposure, SRB", "result": 54.6, "unit": "nM"},
      {"measurement": "CC50", "setting": "[8]; read-out: LC50, LOVO, 48 hours exposure, SRB", "result": 109, "unit": "nM"},
      {"measurement": "GI50", "setting": "[9]; MEL-28, 48 hours exposure, SRB", "result": 2.16, "unit": "nM"},
      {"measurement": "IC (TGI)", "setting": "[9]; MEL-28, 48 hours exposure, SRB", "result": 5.23, "unit": "nM"},
      {"measurement": "CC50", "setting": "[9]; read-out: LC50, MEL-28, 48 hours exposure, SRB", "result": 12.6, "unit": "nM"},
      {"measurement": "GI50", "setting": "[10]; PANC-1, 48 hours exposure, SRB", "result": 42.1, "unit": "nM"},
      {"measurement": "IC (TGI)", "setting": "[10]; PANC-1, 48 hours exposure, SRB", "result": 104, "unit": "nM"},
      {"measurement": "CC50", "setting": "[10]; read-out: LC50, PANC-1, 48 hours exposure, SRB", "result": 13000, "unit": "nM"},
      {"measurement": "GI50", "setting": "[11]; SK-BR3, 48 hours exposure, SRB", "result": 11.8, "unit": "nM"},
      {"measurement": "IC (TGI)", "setting": "[11]; SK-BR3, 48 hours exposure, SRB", "result": 32, "unit": "nM"},
      {"measurement": "CC50", "setting": "[11]; read-out: LC50, SK-BR3, 48 hours exposure, SRB", "result": 86.4, "unit": "nM"},
      {"measurement": "GI50", "setting": "[12]; [25]", "result": 84.3, "unit": "nM"},
      {"measurement": "IC (TGI)", "setting": "[12]; [25]", "result": 783, "unit": "nM"},
      {"measurement": "CC50", "setting": "[12]; read-out: LC50, H-MEC-1, 48 hours exposure, SRB", "result": 13000, "unit": "nM"},
      {"measurement": "GI50", "setting": "[13]; Homo sapiens, SK-OV-3, 48 h, SK-OV3, 48 hours exposure, SRB", "result": 50.7, "unit": "nM"},
      {"measurement": "CC50", "setting": "[13]; Homo sapiens, SK-OV-3, 48 h, read-out: LC50, SK-OV3, 48 hours exposure, SRB", "result": 13000, "unit": "nM"},
      {"measurement": "TGI", "setting": "[13]; SK-OV3, 48 hours exposure, SRB", "result": "2.05E−07", "unit": "Molar"},
      {"measurement": "Liver", "setting": "[14]", "result": "3.19E−07"},
      {"measurement": "Skeletal", "setting": "[15]", "result": "2.71E−08"},
      {"measurement": "Myelo", "setting": "[16]", "result": "2.05E−07"},
      {"measurement": "Heart", "setting": "[17]", "result": "8.86E−07"},
      {"measurement": "Human Liver S9 Metabolic Stability (% remaining)", "setting": "[18]", "result": 2, "unit": "% remaining"},
      {"measurement": "Cell Viability (% inhibition)", "setting": "[19]", "result": 33, "unit": "% inhibition"},
      {"measurement": "logD at 60 min", "setting": "[20]", "result": "> 4.4"},
      {"measurement": "inhibition at 450 min, 10 µM", "setting": "[21]", "result": 15, "unit": "%"},
      {"measurement": "inhibition at 30 min, 10 µM", "setting": "[22]", "result": 78, "unit": "%"}
    ]}
  ]
}
